Measured values as given in patent publication US12378224B2 (Dong-A Socio Holdings Co., Ltd., priority 2016, dated 2025).

target: human c-MER catalytic domain (Homo sapiens (Human), UniProt Q12866); assay: TR-FRET Kinase Activity Biochemical Assay (LanthaScreen); details: 10 uM ATP, 1 hour, kinase not given
In short: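 Recombinant human c-MER catalytic domain phosphorylated fluorescein-labeled poly-GT substrate. The reaction was stopped with 10 mM EDTA, then 2 nM Tb-labeled anti-phosphotyrosine antibody was added for 30 min. Kinase activity was taken from the 495/520 nm TR-FRET emission ratio after 340 nm excitation.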

Chain of human c-MER catalytic domain (Q12866 587-858): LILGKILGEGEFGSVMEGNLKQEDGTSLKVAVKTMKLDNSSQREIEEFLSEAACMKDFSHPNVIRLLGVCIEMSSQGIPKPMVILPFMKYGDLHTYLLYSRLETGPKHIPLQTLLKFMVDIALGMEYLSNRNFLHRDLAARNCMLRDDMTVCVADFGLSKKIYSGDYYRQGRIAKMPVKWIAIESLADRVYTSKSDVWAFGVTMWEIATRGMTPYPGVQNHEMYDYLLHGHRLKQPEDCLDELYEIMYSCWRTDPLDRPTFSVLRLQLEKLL

Compared with `CCOC(=O)C1CN(C(=O)c2ccc(-c3ccccc3)cc2)CC1NC(=O)c1cc(-c2cnn(C)c2)cnc1N` (centres unmarked) [Example 687, ethyl 1-([1,1′-biphenyl]-4-carbonyl)-4-(2-amino-5-(1-methyl-1H-pyrazol-4-yl)nicotinamido)pyrrolidine-3-carboxylate], `Cn1cc(-c2cnc(N)c(C(=O)N[C@H]3CN(C(=O)c4ccc(-c5ccccc5)cc4)C[C@@H]3O)c2)cn1` [Example 742, N-((3S,4S)-1-([1,1′-biphenyl]-4-carbonyl)-4-hydroxypyrrolidin-3-yl)-2-amino-5-(1-methyl-1H-pyrazol-4-yl)nicotinamide] is lower in IC50: greater than 1 µM for the first, 0.1 to 1 µM for the second.

`COC(=O)[C@H]1C[C@@H](NC(=O)c2cc(-c3cnn(C)c3)cnc2N)CN1C(=O)c1ccc(-c2ccc(F)cc2Cl)cc1` [Example 689, methyl (2R,4R)-4-(2-amino-5-(1-methyl-1H-pyrazol-4-yl)nicotinamido)-1-(2′-chloro-4′-fluoro-[1,1′-biphenyl]-4-carbonyl)pyrrolidine-2-carboxylate] and `CCOC(=O)C1CN(C(=O)c2ccc(-c3ccc(F)cc3Cl)cc2)CC1NC(=O)c1cc(-c2cnn(C)c2)cnc1N` (centres unmarked) [Example 690, ethyl 4-(2-amino-5-(1-methyl-1H-pyrazol-4-yl)nicotinamido)-1-(2′-chloro-4′-fluoro-[1,1′-biphenyl]-4-carbonyl)pyrrolidine-3-carboxylate] cannot be ordered by IC50: greater than 1 µM for the first, greater than 1 µM for the second.

`Cn1cc(-c2cnc(N)c(C(=O)N[C@@H]3CCN(C(=O)c4cccc(-c5cnn(S(=O)(=O)c6ccccc6)c5)c4)C3)c2)cn1` [Example 717, (R)-2-amino-5-(1-methyl-1H-pyrazol-4-yl)-N-(1-(3-(1-(phenylsulfonyl)-1H-pyrazol-4-yl)benzoyl)pyrrolidin-3-yl)nicotinamide] and `Cn1cc(-c2cnc(N)c(C(=O)N[C@@H]3CN(C(=O)c4ccc(-c5ccccc5)cc4)C[C@@H]3O)c2)cn1` [Example 743, N-((3R,4S)-1-([1,1′-biphenyl]-4-carbonyl)-4-hydroxypyrrolidin-3-yl)-2-amino-5-(1-methyl-1H-pyrazol-4-yl)nicotinamide] cannot be ordered by IC50: greater than 1 µM for the first, greater than 1 µM for the second.

Compared with `Cn1cc(-c2cnc(N)c(C(=O)N[C@H]3CN(C(=O)c4ccc(Br)cc4)C[C@@H]3O)c2)cn1` [Example 732, 2-amino-N-((3S,4S)-1-(4-bromobenzoyl)-4-hydroxypyrrolidin-3-yl)-5-(1-methyl-1H-pyrazol-4-yl)nicotinamide], `Cn1cc(-c2cnc(N)c(C(=O)N[C@@H]3CCN(C(=O)c4ccc(-c5ccc(F)cc5Cl)cc4)C3)n2)cn1` [Example 745, (R)-3-amino-N-(1-(2′-chloro-4′-fluoro-[1,1′-biphenyl]-4-carbonyl)pyrrolidin-3-yl)-6-(1-methyl-1H-pyrazol-4-yl)pyrazine-2-carboxamide] is lower in IC50: greater than 1 µM for the first, 0.01 to 0.1 µM for the second. The second is the more potent here.

First: CN1CCN(c2cc(-c3cnc(N)c(C(=O)N[C@@H]4CCN(C(=O)c5ccc(-c6ccc(F)cc6Cl)cc5)C4)c3)ccn2)CC1 [Example 780, (R)-6-amino-N-(1-(2′-chloro-4′-fluoro-[1,1′-biphenyl]-4-carbonyl)pyrrolidin-3-yl)-2′-(4-methylpiperazin-1-yl) -[3,4′-bipyridine]-5-carboxamide]
Second: Nc1ncc(-c2ccc(N3CCOCC3)cc2)cc1C(=O)N[C@@H]1CCN(C(=O)c2ccc(-c3ccc(F)cc3Cl)cc2)C1 [Example 782, (R)-2-amino-N-(1-(2′-chloro-4′-fluoro-[1,1′-biphenyl]-4-carbonyl)pyrrolidin-3-yl)-5-(4-morpholinophenyl)nicotinamide]
The IC50 of the first is lower: less than 0.01 µM for the first, 0.01 to 0.1 µM for the second. The first is the more potent here.

Work on `Cn1cc(-c2cnc3[nH]nc(N[C@@H]4CCN(C(=O)c5ccc(-c6ccc7c(c6)CCCN7)cc5)C4)c3c2)cn1` [Example 790, (R)-(3-((5-(1-methyl-1H-pyrazol-4-yl)-1H-pyrazolo[3,4-b]pyridin-3-yl)amino)pyrrolidin-1-yl)(4-(1,2,3,4-tetrahydroquinolin-6-yl)phenyl)methanone] yielded an IC50 of 0.01 to 0.1 µM.
